In patent US4596819A, “Modified tripeptides” (Warner-Lambert Company, priority 1984, dated 1986):

Assays:
[1] = tested on: learning and memory; conditions: intranasal administration, young unimpaired human subjects, compared with placebo treatment; cited from earlier work
[2] = tested on: recall of learned information; conditions: two patients given bilateral electroconvulsive shock therapy (ECT); cited from earlier work
[3] = tested on: amnesia produced by electroconvulsive shock; test: reversal of electroconvulsive shock-induced amnesia, rats; assay type: in vivo
[4] = tested on: amnesia produced by electroconvulsive shock; test: reversal of electroconvulsive shock-induced amnesia, mice; assay type: in vivo
Protocol: The modified peptides in accordance with this invention are effective in treating senility, in enhancing memory, or of reversing the effects of electroconvulsive shock-induced amnesia. The effectiveness of these compounds is determined by the test designed to show the compound's ability to reverse amnesia produced by electroconvulsive shock. The test is more fully described in U.S. Pat. No. 4,145,347, issued Mar. 20, 1979, the disclosure of which is herein incorporated by reference. The only deviation in the present instance is that the compounds tested are administered orally, and the duration of the electroconvulsive shock administered is 1.0 seconds.

[5] = tested on: amnesia produced by electroconvulsive shock; test: as above; assay type: in vivo; remark: listed apart in the source
[6] = tested on: pole-climbing avoidance; conditions: cited from earlier work

Molecule | % Amnesia Reversal Rats ([3]; dose 0.001 mg/kg IM) [%] | Amnesia reversal rating, rats ([3]; dose 0.001 mg/kg IM) | % Amnesia Reversal Rats ([3]; dose 0.010 mg/kg IM) [%] | Amnesia reversal rating, rats ([3]; dose 0.010 mg/kg IM) | % Amnesia Reversal Rats ([3]; dose 0.100 mg/kg IM) [%] | Amnesia reversal rating, rats ([3]; dose 0.100 mg/kg IM) | also measured
1-desamino-8-D-arginine vasopressin [DDAVP] |  |  |  |  |  |  | effect on learning and memory [1]: increases in learning and memory; effect on recall of learned information [2]: Positive effects on recall of learned information
CC(C)C[C@@H](CSCC(=O)O)NC(=O)[C@@H]1CCC(=O)N1C(=O)OCc1ccccc1 (relative stereo) [Z3-KetoProLeu[CH2 S]Gly, [S-(R*,R*)]-Phenylmethyl 5-oxo-2-[[[1-[[(carboxymethyl)thio]methyl]-3-methylbutyl]amino]carbonyl]-1-pyrrolidinecarboxylate] | 33 | C (25 to 39 percent amnesia reversal (borderline activity=C)) | 0 | N (0 to 25 percent amnesia reversal (inactive=N)) | 0 | N (0 to 25 percent amnesia reversal (inactive=N)) | 
CC(C)C[C@@H](CNCC(N)=O)NC(=O)[C@@H]1CCCN1C(=O)OCc1ccccc1.Cl (relative stereo) [ZProLeu[CH2 NH]GlyNH2, [S-(R*,R*)]-2-[[[1-[[(2-Amino-2-oxoethyl)-amino]methyl]-3-methylbutyl]amino]-carbonyl]-1-pyrrolidinecarboxylic acid, phenylmethyl ester, monohydrochloride] | 43 | A (40 percent or more amnesia reversal (active=A)) | 43 | A (40 percent or more amnesia reversal (active=A)) | 43 | A (40 percent or more amnesia reversal (active=A)) | 
CC(C)C[C@H](NC[C@@H]1CCCN1C(=O)OCc1ccccc1)C(=O)NCC(N)=O (relative stereo) [ZPro[CH2 NH]LeuGlyNH2, [S-(R*,R*)]-2-[[[[1-[(2-Amino-2-oxoethyl)amino]carbonyl]-3-methylbutyl]amino]methyl]-1-pyrrolidinecarboxylic acid, phenylmethyl ester] | 11 | N (0 to 25 percent amnesia reversal (inactive=N)) | 0 | N (0 to 25 percent amnesia reversal (inactive=N)) | 0 | N (0 to 25 percent amnesia reversal (inactive=N)) | % Amnesia Reversal Mice ([4]; dose 1 mg/kg PO): 85%; Amnesia reversal rating, mice ([4]; dose 1 mg/kg PO): A (40 percent or more amnesia reversal (active=A)); % Amnesia Reversal Mice ([4]; dose 10 mg/kg PO): 67%; Amnesia reversal rating, mice ([4]; dose 10 mg/kg PO): A (40 percent or more amnesia reversal (active=A)); % Amnesia Reversal Mice ([4]; dose 100 mg/kg PO): 57%; Amnesia reversal rating, mice ([4]; dose 100 mg/kg PO): A (40 percent or more amnesia reversal (active=A))
Cc1ccc(S(=O)(=O)N2CCCC2CN[C@@H](CC(C)C)C(=O)NCC(N)=O)cc1 (stereo partly drawn) [TosPro[CH2 NH]DLeuGlyNH2, (S)-N^2-[[1-[(4-Methylphenyl)sulfonyl]-2-pyrrolidinyl]methyl]-D-Leucylglycinamide] | 0 | N (0 to 25 percent amnesia reversal (inactive=N)) | 0 | N (0 to 25 percent amnesia reversal (inactive=N)) | 34 | C (25 to 39 percent amnesia reversal (borderline activity=C)) | 
CC(C)CC(CSCC(=O)O)NC(=O)C1CC(=O)CN1C(=O)OCc1ccccc1 (stereo not drawn) [Z4-Keto ProLeu[CH2 S]Gly, [S-(R*,R*)]-Phenylmethyl 2-[[[1-[[(carboxymethyl)thio]methyl]-3-methylbutyl]amino]carbonyl]-4-oxo-1-pyrrolidinecarboxylate] | 17 | N (0 to 25 percent amnesia reversal (inactive=N)) | 50 | A (40 percent or more amnesia reversal (active=A)) | 83 | A (40 percent or more amnesia reversal (active=A)) | 
CC(C)CC(CSCC(=O)O)NC(=O)C1CCCN1C(=O)OCc1ccccc1 (stereo not drawn) [ZProLeu[CH2 S]Gly, [2S-(R*,R*)]-Phenylmethyl2-[[[1-[[(carboxymethyl)thio]methyl]-3-methylbutyl]amino]carbonyl]-1-pyrrolidinecarboxylate] | 57 | N (0 to 25 percent amnesia reversal (inactive=N)) | 57 | A (40 percent or more amnesia reversal (active=A)) | 14 | N (0 to 25 percent amnesia reversal (inactive=N)) | % Amnesia Reversal Mice ([5]; dose 0.1 mg/kg IM): 69%; Amnesia reversal rating, mice ([5]; dose 0.1 mg/kg IM): A (40 percent or more amnesia reversal (active=A)); % Amnesia Reversal Mice ([5]; dose 1.0 mg/kg IM): 77%; Amnesia reversal rating, mice ([5]; dose 1.0 mg/kg IM): A (40 percent or more amnesia reversal (active=A)); % Amnesia Reversal Mice ([5]; dose 10.0 mg/kg IM): 69%; Amnesia reversal rating, mice ([5]; dose 10.0 mg/kg IM): A (40 percent or more amnesia reversal (active=A))
NC(=O)COCC(Cc1ccccc1)NC(=O)[C@@H]1CCCN1C(=O)OCc1ccccc1 (stereo partly drawn) [ZProPhe[CH2 O]GlyNH2, (2S)-Phenylmethyl 2[[[1-[(2-amino-2-oxoethoxy)methyl]-2-phenylethyl]amino]carbonyl]-1-pyrrolidinecarboxylate] | 11 | N (0 to 25 percent amnesia reversal (inactive=N)) | 0 | N (0 to 25 percent amnesia reversal (inactive=N)) | 0 | N (0 to 25 percent amnesia reversal (inactive=N)) | % Amnesia Reversal Mice ([4]; dose 1 mg/kg PO): 20%; Amnesia reversal rating, mice ([4]; dose 1 mg/kg PO): N (0 to 25 percent amnesia reversal (inactive=N)); % Amnesia Reversal Mice ([4]; dose 10 mg/kg PO): 59%; Amnesia reversal rating, mice ([4]; dose 10 mg/kg PO): A (40 percent or more amnesia reversal (active=A)); % Amnesia Reversal Mice ([4]; dose 100 mg/kg PO): 71%; Amnesia reversal rating, mice ([4]; dose 100 mg/kg PO): A (40 percent or more amnesia reversal (active=A))
NC(=O)CC[C@@H]1NC(=O)[C@H](Cc2ccccc2)NC(=O)[C@H](Cc2ccc(O)cc2)NC(=O)[C@@H](N)CSSC[C@@H](C(=O)N2CCC[C@H]2C(=O)N[C@@H](CCCN=C(N)N)C(=O)NCC(N)=O)NC(=O)[C@H](CC(N)=O)NC1=O [vasopressin] |  |  |  |  |  |  | effect on learning and memory [1]: increases in learning and memory
Pro-Arg-Gly-NH2 |  |  |  |  |  |  | activity in the rat pole-climbing avoidance test [6]: active
